Measured values as given in patent US20230117470A1, “SUBSTITUTED PYRAZOLE COMPOUNDS AS TOLL RECEPTOR INHIBITORS” (BRISTOL-MYERS SQUIBB COMPANY, priority 2019, published 2023).

Key:
Assay type in all cases: cell-based
human TLR8 = target: T1, human TLR8 (Homo sapiens, UniProt Q9NR97); assay: TLR8 inhibition reporter assay (HEK-Blue cells, SEAP reporter, R848 stimulation); conditions: HEK-Blue cells overexpressing human TLR8, SEAP reporter, R848 15.9 μM
T1 construct: host or cells: HEK-Blue cells
T1 sequence (Q9NR97 27-1041): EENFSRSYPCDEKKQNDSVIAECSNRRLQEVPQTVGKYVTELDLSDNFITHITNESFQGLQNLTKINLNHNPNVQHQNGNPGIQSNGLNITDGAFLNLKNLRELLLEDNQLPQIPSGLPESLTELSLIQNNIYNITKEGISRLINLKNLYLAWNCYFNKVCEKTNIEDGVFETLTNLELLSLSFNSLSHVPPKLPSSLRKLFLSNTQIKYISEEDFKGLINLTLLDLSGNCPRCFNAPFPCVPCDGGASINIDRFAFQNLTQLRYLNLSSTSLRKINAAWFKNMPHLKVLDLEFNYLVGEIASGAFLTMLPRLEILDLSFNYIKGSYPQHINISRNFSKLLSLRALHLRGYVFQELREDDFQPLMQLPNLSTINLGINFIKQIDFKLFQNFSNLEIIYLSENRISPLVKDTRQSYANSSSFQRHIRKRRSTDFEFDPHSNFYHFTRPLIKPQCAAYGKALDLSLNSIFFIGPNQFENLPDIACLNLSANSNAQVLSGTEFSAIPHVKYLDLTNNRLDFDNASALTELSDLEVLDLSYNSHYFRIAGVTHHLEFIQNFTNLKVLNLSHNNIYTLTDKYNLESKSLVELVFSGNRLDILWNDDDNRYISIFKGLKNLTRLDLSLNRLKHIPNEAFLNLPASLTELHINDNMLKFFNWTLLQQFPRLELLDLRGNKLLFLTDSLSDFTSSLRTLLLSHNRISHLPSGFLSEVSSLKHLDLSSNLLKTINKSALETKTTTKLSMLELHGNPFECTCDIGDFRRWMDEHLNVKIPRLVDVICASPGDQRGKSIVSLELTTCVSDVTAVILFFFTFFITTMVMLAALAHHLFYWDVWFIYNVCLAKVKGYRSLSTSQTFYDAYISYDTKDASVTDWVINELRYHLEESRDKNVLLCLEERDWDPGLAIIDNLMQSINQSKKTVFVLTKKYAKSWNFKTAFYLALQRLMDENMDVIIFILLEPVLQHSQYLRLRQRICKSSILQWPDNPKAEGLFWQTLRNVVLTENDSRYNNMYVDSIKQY
Summary of the method: (§1)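 30 min RT cpd pre-incubation (0.05 nM–50 μM final dose response) → agonist: gardiquimod 7.5 μM / R848 15.9 μM / ODN2006 5 nM for TLR7/8/9 resp. → 22 h, 37° C → SEAP via detection medium. % inhibition vs agonist+DMSO and reference inhibitor controls.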

human TLR7 = target: T2, human TLR7 (Homo sapiens, UniProt Q9NYK1); assay: TLR7 inhibition reporter assay (HEK-Blue cells, SEAP reporter, gardiquimod stimulation); conditions: HEK-Blue cells overexpressing human TLR7, SEAP reporter, gardiquimod 7.5 μM
T2 construct: host or cells: HEK-Blue cells
T2 sequence (Q9NYK1 27-1049): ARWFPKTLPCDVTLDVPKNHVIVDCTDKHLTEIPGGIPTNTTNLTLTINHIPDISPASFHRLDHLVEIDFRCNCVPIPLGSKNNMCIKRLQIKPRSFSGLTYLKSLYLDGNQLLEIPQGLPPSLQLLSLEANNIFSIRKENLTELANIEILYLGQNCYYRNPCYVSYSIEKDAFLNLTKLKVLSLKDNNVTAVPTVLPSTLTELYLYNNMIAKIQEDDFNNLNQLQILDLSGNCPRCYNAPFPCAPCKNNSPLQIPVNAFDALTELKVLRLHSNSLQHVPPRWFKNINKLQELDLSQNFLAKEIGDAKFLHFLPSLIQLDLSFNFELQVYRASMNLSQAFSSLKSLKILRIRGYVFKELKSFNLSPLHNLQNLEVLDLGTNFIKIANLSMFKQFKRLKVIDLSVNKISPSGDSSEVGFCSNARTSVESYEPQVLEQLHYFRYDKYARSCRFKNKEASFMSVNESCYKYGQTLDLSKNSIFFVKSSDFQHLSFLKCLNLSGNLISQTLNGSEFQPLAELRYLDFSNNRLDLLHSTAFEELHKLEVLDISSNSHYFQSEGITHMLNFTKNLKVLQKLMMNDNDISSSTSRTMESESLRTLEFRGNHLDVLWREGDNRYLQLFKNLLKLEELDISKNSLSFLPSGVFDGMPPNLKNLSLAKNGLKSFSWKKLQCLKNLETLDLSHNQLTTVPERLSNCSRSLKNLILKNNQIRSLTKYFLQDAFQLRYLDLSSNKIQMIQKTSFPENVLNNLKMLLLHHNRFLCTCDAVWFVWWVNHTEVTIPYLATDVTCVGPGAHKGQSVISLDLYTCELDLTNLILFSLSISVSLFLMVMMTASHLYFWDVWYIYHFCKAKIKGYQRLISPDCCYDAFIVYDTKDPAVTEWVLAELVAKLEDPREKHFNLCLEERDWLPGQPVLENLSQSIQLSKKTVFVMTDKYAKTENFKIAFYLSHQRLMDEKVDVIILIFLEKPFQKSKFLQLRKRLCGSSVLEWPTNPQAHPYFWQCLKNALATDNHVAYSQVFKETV
Summary of the method: as §1

human TLR9 = target: T3, human TLR9 (Homo sapiens, UniProt Q9NR96); assay: TLR9 inhibition reporter assay (HEK-Blue cells, SEAP reporter, ODN2006 stimulation); conditions: HEK-Blue cells overexpressing human TLR9, SEAP reporter, ODN2006 5 nM
T3 construct: host or cells: HEK-Blue cells
T3 sequence (Q9NR96 26-1032): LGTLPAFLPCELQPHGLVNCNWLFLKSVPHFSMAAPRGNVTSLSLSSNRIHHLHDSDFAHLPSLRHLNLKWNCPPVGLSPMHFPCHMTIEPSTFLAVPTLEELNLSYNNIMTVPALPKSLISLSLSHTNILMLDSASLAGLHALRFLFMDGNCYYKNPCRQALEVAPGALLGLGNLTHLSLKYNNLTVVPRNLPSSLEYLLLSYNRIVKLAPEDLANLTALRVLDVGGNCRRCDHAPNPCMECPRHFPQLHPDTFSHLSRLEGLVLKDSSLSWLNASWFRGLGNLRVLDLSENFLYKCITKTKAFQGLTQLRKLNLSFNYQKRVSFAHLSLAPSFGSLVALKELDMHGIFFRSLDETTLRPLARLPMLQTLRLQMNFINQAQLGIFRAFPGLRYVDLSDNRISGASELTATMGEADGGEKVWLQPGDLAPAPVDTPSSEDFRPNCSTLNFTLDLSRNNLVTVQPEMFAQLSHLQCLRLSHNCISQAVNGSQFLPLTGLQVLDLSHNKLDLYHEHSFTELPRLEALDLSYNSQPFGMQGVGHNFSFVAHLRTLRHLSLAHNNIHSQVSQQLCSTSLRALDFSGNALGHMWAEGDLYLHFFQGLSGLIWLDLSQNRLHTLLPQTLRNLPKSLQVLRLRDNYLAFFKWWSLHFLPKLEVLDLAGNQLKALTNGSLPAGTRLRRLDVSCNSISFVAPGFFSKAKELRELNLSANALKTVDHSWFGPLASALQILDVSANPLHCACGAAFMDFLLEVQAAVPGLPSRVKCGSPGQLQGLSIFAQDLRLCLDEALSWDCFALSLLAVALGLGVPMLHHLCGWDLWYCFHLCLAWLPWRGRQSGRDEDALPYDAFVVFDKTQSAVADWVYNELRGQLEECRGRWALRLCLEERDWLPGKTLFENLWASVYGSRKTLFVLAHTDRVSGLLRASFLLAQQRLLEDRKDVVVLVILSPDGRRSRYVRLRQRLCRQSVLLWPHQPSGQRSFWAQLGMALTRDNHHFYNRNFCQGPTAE
Summary of the method: as §1

Structure (SMILES) | IC50 (human TLR8) [µM] | IC50 (human TLR7) [µM] | IC50 (human TLR9) [µM]
Cc1cc(-c2[nH]nc(-c3ccc(N4CCNCC4)cc3)c2C(C)C)cn2ncnc12 [Example 406] | 0.142 | 0.00274 | > 50
Cc1cc(-c2[nH]nc(-c3ncc(C4CCN(C)CC4)cn3)c2C(C)C)cn2ncnc12 [Example 368] | 0.0281 | 0.0105 | 5.46
Cc1cc(-c2[nH]nc(-c3cc4n(n3)CCNC4)c2C(C)C)cn2ncnc12 [Example 217] | 0.0053 | 0.00241 | 5.87
COc1cc(-c2[nH]nc(-c3cnc(C4CCN(C5COC5)CC4)cn3)c2C(C)C)cn2ncnc12 [Example 385] | 0.0314 | 0.0588 | > 50
Cc1cc(-c2[nH]nc(C(=O)N[C@H]3CCCN(CC4=NC(C)N=N4)C3)c2C(C)C)cn2ncnc12 (stereo partly drawn) [Example 165] | 0.0144 | 0.00161 | 22.8
COCCN1CCc2cc(-c3n[nH]c(-c4cc(C)c5ncnn5c4)c3C(C)C)ccc2C1 [Example 263, 6-(4-isopropyl-5-(8-methyl-[1,2,4]triazolo[1,5-a]pyridin-6-yl)-1H-pyrazol-3-yl)-2-(2-methoxyethyl)-1,2,3,4-tetrahydroisoquinoline] | 0.00448 | 0.00474 | 18.1
COc1cc(-c2[nH]nc(-c3nc4c(s3)CN(C)CC4)c2C(C)C)cn2ncnc12 [Example 262] | 0.0175 | 0.0238 | 18.3
Cc1cc(-c2[nH]nc(C(=O)N[C@H]3CC[C@@H](N(CCC(C)C)CCC(C)C)CC3)c2C(C)C)cn2ncnc12 [Example 91] | 0.00812 | 0.00401 | 6.72
Cc1cc(-c2[nH]nc(-c3ccc4c(c3)CCN(CC(N)=O)C4)c2C(C)C)cn2ncnc12 [Example 272] | 0.122 | 0.137 | > 50
CCN1CC(c2ccc(-c3n[nH]c(-c4cc(OC)c5ncnn5c4)c3C(C)C)cc2)C1 [Example 329] | 0.0603 | 0.414 | 14.7
Cc1cc(-c2[nH]nc(C(=O)N[C@H]3CC[C@H](NCc4cncnc4)CC3)c2C(C)C)cn2ncnc12 [Example 113] | 0.0271 | 0.00109 | 7.8
Cc1cc(-c2[nH]nc(C(=O)NCC3CN(CC(C)(C)O)CCO3)c2C(C)C)cn2ncnc12 (stereo not drawn) [Example 143] | 0.0196 | 0.00534 | 9.28
COc1cc(-c2[nH]nc(-c3cnc(C4CCN(C(=O)CN(C)C)CC4)cn3)c2C(C)C)cn2ncnc12 [Example 403] | 0.156 | 0.0269 | > 50
COc1cc(-c2[nH]nc(-c3ccc(C4CCN(C)CC4)cc3)c2C(C)C)cn2ncnc12 [Example 314] | 0.0185 | 0.0139 | > 50
COc1cc(-c2[nH]nc(-c3ccc(C4CCNCC4)cn3)c2C(C)C)cn2ncnc12 [Example 339, 6-(4-isopropyl-3-(5-(piperidin-4-yl)pyridin-2-yl)-1H-pyrazol-5-yl)-8-methoxy-[1,2,4]triazolo[1,5-a]pyridine] | 0.00386 | 0.0199 | 36.6
CCN1CCC[C@H](NC(=O)c2n[nH]c(-c3cc(C)c4ncnn4c3)c2C(C)C)C1 [Example 164] | 0.00443 | 0.00132 | 15.6

Molecules with a lower IC50 (human TLR8), results first:

IC50 (human TLR8) [µM] | IC50 (human TLR7) [µM] | IC50 (human TLR9) [µM] | Structure (SMILES)
0.00093 | 0.00221 | 5.78 | CCC(CC)CN[C@H]1CC[C@H](NC(=O)c2n[nH]c(-c3cc(C)c4ncnn4c3)c2C(C)C)CC1 [Example 110]
0.00086 | 0.0136 | 34.9 | CCNc1ccc2nc(-c3n[nH]c(-c4cc(C)c5ncnn5c4)c3C(C)C)sc2c1 [Example 257]
0.00058 | 0.0008 | 8.35 | COc1cc(-c2[nH]nc(C(=O)NC3CCNCC3)c2CC(F)(F)F)cn2ncnc12 [Example 190, 5-(8-methoxy-[1,2,4]triazolo[1,5-a]pyridin-6-yl)-N-(piperidin-4-yl)-4-(2,2,2-trifluoroethyl)-1H-pyrazole-3-carboxamide]
0.00052 | 0.0152 | 14.2 | Cc1cc(-c2[nH]nc(C3CCC(NC4CCN(C(C)C)CC4)CC3)c2C(C)C)cn2ncnc12 (single isomer, unassigned) [Example 288]
0.00045 | 0.00949 | 42.6 | Cc1cc(-c2[nH]nc(C3CCC(NCC4(C)COC4)CC3)c2C(C)C)cn2ncnc12 (single isomer, unassigned) [Example 281]
0.00043 | 0.00145 | 19.3 | CCN1CCC(c2ccc(-c3n[nH]c(-c4cc(C)c5ncnn5c4)c3C(C)C)cc2)CC1 [Example 310]
0.00037 | 0.0009 | 9.22 | Cc1cc(-c2[nH]nc(C(=O)NC3CCNCC3)c2CC(F)(F)F)cn2ncnc12 [compound 194]
0.00011 | 0.00057 | 2.5 | Cc1cc(-c2[nH]nc(C(=O)N[C@H]3CC[C@H](N)CC3)c2C(C)C)cn2ncnc12 [Example 46]
